From patent US10047081B2, “BACE1 inhibitors” (Hoffmann-La Roche Inc., priority 2015, dated 2018) come the findings set out here.

In one test the target is T1, CYP2D6 (Homo sapiens, UniProt P10635).
T1 construct: 0.2 mg/ml pooled human liver microsomes; from tissue; host or cells: pooled human liver microsomes
As to the kind of experiment: CYP inhibition assay, human liver microsomes. It counts as in vitro ADME. The settings on record: human liver microsomes, substrate dextromethorphan; read-out: CYP IC50 2D6. The protocol: (§1) Inhibition of cytochromes P450 (CYPs) 2C9, 2D6 and 3A4 was assessed using human liver microsomes and CYP-selective substrate metabolism reactions. 50 μl incubations were made up containing (finally) 0.2 mg/ml pooled human liver microsomes, 5 μM substrate (diclofenac for CYP2C9 [4′hydroxylase], dextromethorphan for CYP2D6 [O-demethylase] or midazolam for CYP3A4 [1′hydroxylase]), 0.25 μL DMSO containing test inhibitor and NADPH regenerating system. Test inhibitor concentrations of 50, 16.7, 5.6, 1.9, 0.6 and 0.2 μM were assessed in singlicate. Incubations were prewarmed to 37° C. for 10 minutes before initiation by addition of NADPH regenerating system. Incubations were quenched after 5 minutes (20 minutes for dextromethorphan) by addition of 50 μl cold acetonitrile containing 20 ng/ml 4-OH-diclofenac-13C6, 20 ng/mL dextrorphan-D3 and 20 ng/mL 1-OH-midazolam-D4. Quenched incubates were stored at −20° C. for at least 1 hour before centrifugation (20,000× g, 20 minutes). Supernatants were removed and diluted 1:1 with water prior to analysis using a RapidFire sample injector system and API4000 mass spectrometer. Peak areas for substrate, metabolite and stable-labelled metabolite standard were determined using MS/MS. The peak area ratios between the metabolite generated by the enzymatic reaction and the internal standard were used in subsequent calculations. The percentage of (DMSO) control activity was calculated for each incubate and IC50 values estimated by non-linear regression. Sulfaphenazole, quinidine or ketoconazole were tested in each CYP2C9, CYP2D6 or CYP3A4 inhibition experiment, respectively, to ensure assay sensitivity and reproducibility. (Validated assays for human cytochrome P450 activities, R. L. Walsky and R. S. Obach, Drug Metabolism and Disposition 32: 647-660, 2004. and S. Fowler and H. Zhang, The AAPS Journal, Vol. 10, No. 2, 410-424, 2008)
For orientation: Microsomes from liver hold many membrane-bound enzymes, among them those of drug oxidation.

The target of another test is T2, CYP3A4 (Homo sapiens, UniProt P08684).
T2 construct: 0.2 mg/ml pooled human liver microsomes; from tissue; host or cells: pooled human liver microsomes
T2 sequence (P08684 whole entry): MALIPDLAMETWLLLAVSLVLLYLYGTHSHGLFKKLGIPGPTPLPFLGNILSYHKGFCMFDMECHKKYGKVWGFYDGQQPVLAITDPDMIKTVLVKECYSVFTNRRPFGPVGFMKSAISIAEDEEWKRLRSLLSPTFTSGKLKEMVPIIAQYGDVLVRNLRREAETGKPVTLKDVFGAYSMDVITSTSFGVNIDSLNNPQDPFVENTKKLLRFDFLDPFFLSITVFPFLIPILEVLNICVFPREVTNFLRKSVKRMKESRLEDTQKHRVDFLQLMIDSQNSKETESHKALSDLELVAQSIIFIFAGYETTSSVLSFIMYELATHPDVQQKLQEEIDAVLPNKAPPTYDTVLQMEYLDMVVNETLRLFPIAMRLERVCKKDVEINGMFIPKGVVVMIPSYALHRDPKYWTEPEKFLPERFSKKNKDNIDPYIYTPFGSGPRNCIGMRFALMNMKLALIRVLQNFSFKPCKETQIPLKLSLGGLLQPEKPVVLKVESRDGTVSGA
As to the kind of experiment: CYP inhibition assay, human liver microsomes. The format is in vitro ADME. The settings on record: human liver microsomes, substrate midazolam; read-out: CYP IC50 3A4. The protocol:
as §1

For a further test, the target named is T3, CYP2C9 (Homo sapiens, UniProt P11712).
T3 construct: 0.2 mg/ml pooled human liver microsomes; from tissue; host or cells: pooled human liver microsomes
T3 sequence (P11712 whole entry): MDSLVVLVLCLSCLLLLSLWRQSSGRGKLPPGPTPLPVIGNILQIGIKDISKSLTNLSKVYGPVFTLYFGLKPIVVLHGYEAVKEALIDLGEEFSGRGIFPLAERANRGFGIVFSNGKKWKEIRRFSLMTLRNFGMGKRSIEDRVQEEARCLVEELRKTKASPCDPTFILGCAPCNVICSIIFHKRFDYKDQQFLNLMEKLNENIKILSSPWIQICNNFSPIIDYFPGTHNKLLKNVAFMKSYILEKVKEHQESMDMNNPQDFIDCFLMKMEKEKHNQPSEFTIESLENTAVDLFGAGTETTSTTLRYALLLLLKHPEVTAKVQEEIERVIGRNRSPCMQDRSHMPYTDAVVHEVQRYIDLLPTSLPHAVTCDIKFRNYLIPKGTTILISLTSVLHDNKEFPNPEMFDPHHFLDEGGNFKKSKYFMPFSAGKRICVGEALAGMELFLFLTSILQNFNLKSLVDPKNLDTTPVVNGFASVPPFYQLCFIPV
Briefly: CYP inhibition assay, human liver microsomes. The settings on record: human liver microsomes, substrate diclofenac; read-out: CYP IC50 2C9. It counts as in vitro ADME. The protocol:
as §1

Another test addresses T4, BACE1 (Homo sapiens, UniProt P56817).
T4 construct: endogenous in cells; host or cells: HEK293 APP cells
Briefly: Cellular Aβ-lowering assay (Abeta 40 AlphaLISA, HEK293 APP cells). Conditions: 18-20 hrs incubation, Aβ 40 in culture supernatant, read-out: BACE1 cell act. Aβ40 IC50. It counts as cell-based. The essentials:
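HEK293 APP cells were treated with compound for 18-20 hrs at 37° C in 1% DMSO. Secreted Aβ40 in the supernatant was measured by AlphaLISA at 615 nm. Values are % of the DMSO-only signal, fit to give IC50.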
For orientation: In Alpha technology, singlet oxygen from a donor bead excites a nearby acceptor bead.

Test [1] has as its target T5, recombinant human cathepsin E (Homo sapiens, UniProt P14091).
T5 construct: purchased R&D Systems
T5 sequence (P14091 54-396): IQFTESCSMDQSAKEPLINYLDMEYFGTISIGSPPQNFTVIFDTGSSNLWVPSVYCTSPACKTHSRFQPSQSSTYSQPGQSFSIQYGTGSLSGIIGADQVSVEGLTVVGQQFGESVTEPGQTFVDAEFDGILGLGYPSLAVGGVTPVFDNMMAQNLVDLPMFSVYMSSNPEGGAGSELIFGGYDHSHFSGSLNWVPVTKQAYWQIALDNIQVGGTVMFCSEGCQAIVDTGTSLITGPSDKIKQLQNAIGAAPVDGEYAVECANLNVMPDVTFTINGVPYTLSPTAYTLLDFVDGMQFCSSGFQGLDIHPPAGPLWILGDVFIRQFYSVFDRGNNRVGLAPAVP
As to the kind of experiment: Cathepsin E fluorescent substrate kinetic assay. It counts as biochemical. The settings on record: pH 4.5, substrate MR121-CKLVFFAEDW
The text has this: Cathepsin D and Cathepsin E Fluorescent Substrate Kinetic Assays
The MR121 fluorescence assays described below are based on the fact that MR121 forms a non-fluorescent ground state complex with tryptophan. In solution this formation occurs at millimolar concentrations of tryptophan. The mechanism can be used to design a generic biochemical assay for proteases. A substrate peptide is labeled at the N-terminus with tryptophan and at the C-terminus with the fluorophore MR121 (for cathepsin D the 10 amino acid peptide WTSVLMAAPC-MR121 was used; for cathepsin E, MR121-CKLVFFAEDW was used). In absence of protease activity, the substrates remain intact and the MR121 fluorescence is reduced by the high local Trp-concentration. If the substrates are cleaved by the enzymes the MR121 fluorescence is recovered.
The fluorescent substrate cathepsin D and cathepsin E kinetic assays were performed at room temperature in 384-well microtiter plates (black with clear flat bottom, non-binding surface plates from Corning) in a final volume of 51 μl. The test compounds were serially diluted in DMSO (15 concentrations, ⅓ dilution steps) and 1 μl of diluted compounds were mixed for 10 min with 40 μl of cathepsin D (from human liver, Calbiochem) diluted in assay buffer (100 mM sodium acetate, 0.05% BSA, pH 5.5; final concentration:200 nM) or with 40 μl of recombinant human cathepsin E (R&D Systems) diluted in assay buffer (100 mM sodium acetate, 0.05% BSA, pH 4.5; final concentration:0.01 nM). After addition of 10 μl of the cathepsin D substrate WTSVLMAAPC-MR121 diluted in cathepsin D assay buffer (final concentration:300 nM) or 10 μl of the cathepsin E substrate MR121-CKLVFFAEDW diluted in cathepsin E assay buffer (final concentration:300 nM), the plates were strongly shaken for 2 minutes. The enzymatic reaction was followed in a plate: vision reader (Perkin Elmer) (excitation wavelength:630 nm; emission:695 nm) for at least 30 minutes in a kinetic measurement detecting an increase of MR121 fluorescence during the reaction time. The slope in the linear range of the kinetic was calculated and the IC50 of the test compounds were determined using a four parameter equation for curve fitting.

T1 sequence (P10635 whole entry): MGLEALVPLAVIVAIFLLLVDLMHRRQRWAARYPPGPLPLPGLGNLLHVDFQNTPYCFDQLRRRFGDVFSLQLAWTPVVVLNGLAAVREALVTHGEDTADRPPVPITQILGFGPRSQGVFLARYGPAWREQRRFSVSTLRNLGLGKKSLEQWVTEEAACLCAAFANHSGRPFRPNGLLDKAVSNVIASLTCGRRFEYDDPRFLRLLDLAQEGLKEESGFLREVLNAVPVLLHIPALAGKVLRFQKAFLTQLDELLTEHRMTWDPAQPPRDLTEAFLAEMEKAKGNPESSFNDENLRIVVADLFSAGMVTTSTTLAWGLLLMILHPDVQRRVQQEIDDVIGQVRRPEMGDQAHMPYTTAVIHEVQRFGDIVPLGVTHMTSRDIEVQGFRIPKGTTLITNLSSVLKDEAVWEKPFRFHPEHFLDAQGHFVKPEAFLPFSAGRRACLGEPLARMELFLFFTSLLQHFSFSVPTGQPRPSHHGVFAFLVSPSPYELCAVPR
T4 sequence (P56817 46-501): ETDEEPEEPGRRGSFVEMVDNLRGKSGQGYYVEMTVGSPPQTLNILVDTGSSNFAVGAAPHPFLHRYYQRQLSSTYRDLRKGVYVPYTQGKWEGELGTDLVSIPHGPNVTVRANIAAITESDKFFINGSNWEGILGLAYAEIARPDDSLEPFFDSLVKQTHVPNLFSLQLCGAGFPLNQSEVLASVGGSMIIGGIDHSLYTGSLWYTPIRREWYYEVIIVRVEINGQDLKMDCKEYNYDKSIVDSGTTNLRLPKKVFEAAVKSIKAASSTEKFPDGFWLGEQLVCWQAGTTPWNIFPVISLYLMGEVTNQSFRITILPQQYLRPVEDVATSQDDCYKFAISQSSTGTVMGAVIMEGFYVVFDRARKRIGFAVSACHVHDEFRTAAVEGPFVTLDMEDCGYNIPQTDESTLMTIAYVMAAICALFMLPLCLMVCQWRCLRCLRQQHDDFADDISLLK

As for `CN=[S@@]1(=O)C[C@@](C)(c2cc(-c3cc(-c4cnc(OC)cn4)no3)ccc2F)N=C(N)C1(C)C` [Example 7, (1R,3R)-5-amino-3-(2-fluoro-5-(3-(5-methoxypyrazin-2-yl)isoxazol-5-yl)phenyl)-3,6,6-trimethyl-1-(methylimino)-3,6-dihydro-2H-1,4-thiazine 1-oxide 2,2,2-trifluoroacetate], the IC50 (as a rule, the concentration that inhibits the measured activity by half) at CYP2D6 is over 10 µM; at CYP3A4, over 10 µM; on CYP2C9, over 10 µM; on BACE1 it was 0.056 µM; in test [1], 182 µM.

`CN=[S@@]1(=O)C[C@@](C)(c2cc(-c3cc(-c4ncc(Cl)cn4)no3)ccc2F)N=C(N)C1(C)C` [Example 6, (1R,3R)-5-amino-3-(5-(3-(5-chloropyrimidin-2-yl)isoxazol-5-yl)-2-fluorophenyl)-3,6,6-trimethyl-1-(methylimino)-3,6-dihydro-2H-1,4-thiazine 1-oxide 2,2,2-trifluoroacetate]: the IC50 on CYP2D6 was over 10 µM; on CYP3A4, over 10 µM; on CYP2C9, over 10 µM; at BACE1, 0.006 µM; in test [1] it was 79 µM.

Turning to `[2H]C([2H])([2H])N=[S@@]1(=O)C[C@@](C)(c2cc(-c3cc(-c4cnc(OC)cn4)no3)ccc2F)N=C(N)C1(C)C` [Example 24, (1R,3R)-3-[2-fluoro-5-[3-(5-methoxypyrazin-2-yl)isoxazol-5-yl]phenyl]-3,6,6-rimethyl-1-oxo-1-(trideuteriomethylimino)-2H-1,4-thiazin-5-amine 2,2,2-trifluoroacetate], the IC50 on CYP2D6 is over 10 µM; on CYP3A4 it was over 10 µM; at CYP2C9 it was over 10 µM; on BACE1, 0.05 µM; in test [1] it was 167 µM.

On to `CN=[S@@]1(=O)C[C@@](C)(c2cc(-c3cc(-c4cnc(OCC(F)F)cn4)no3)ccc2F)N=C(N)C1(C)C` [Example 5, (1R,3R)-5-amino-3-(5-(3-(5-(2,2-difluoroethoxy)pyrazin-2-yl)isoxazol-5-yl)-2-fluorophenyl)-3,6,6-trimethyl-1-(methylimino)-3,6-dihydro-2H-1,4-thiazine 1-oxide 2,2,2-trifluoroacetate], for which the IC50 on CYP3A4 was over 10 µM; at CYP2C9, over 10 µM; on BACE1, 0.013 µM; in test [1], 78 µM.
